{"source": "ChEMBL document CHEMBL5046281", "about": "“N-Aryl Mercaptopropionamides as Broad-Spectrum Inhibitors of Metallo-β-Lactamases” (J Med Chem, 2022)", "key": {"[1]": {"biological_target": "T1, Matrix metalloproteinase-14 (Homo sapiens, UniProt P50281)", "experiment": "Inhibition of human MMP-14"}, "[2]": {"biological_target": "Neutrophil collagenase (Homo sapiens) (UniProt P22894)", "sequence (P22894 101-467 limits assumed)": "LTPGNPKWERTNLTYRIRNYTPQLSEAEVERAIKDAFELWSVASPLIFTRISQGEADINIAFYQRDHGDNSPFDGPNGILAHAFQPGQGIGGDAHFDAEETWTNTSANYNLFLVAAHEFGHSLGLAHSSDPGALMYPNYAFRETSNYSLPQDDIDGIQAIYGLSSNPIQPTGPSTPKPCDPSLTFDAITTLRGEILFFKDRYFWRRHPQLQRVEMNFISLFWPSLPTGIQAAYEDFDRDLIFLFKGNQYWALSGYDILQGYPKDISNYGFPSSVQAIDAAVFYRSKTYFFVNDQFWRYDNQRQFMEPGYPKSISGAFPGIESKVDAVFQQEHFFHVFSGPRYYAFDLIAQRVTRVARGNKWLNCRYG", "experiment": "Inhibition of human MMP-8 at 100 uM relative to control"}, "[3]": {"tested_on": "HEK293", "experiment": "Cytotoxicity against human HEK293 cells assessed as reduction in cell viability at 100 uM relative to control", "assay_type": "toxicity, cell-based", "details": "hek293, 100 µM"}, "[4]": {"tested_on": "Pseudomonas aeruginosa", "experiment": "Antibacterial activity against VIM-2 expressing Pseudomonas aeruginosa isolates assessed as inhibition of bacterial growth by microdilution method", "assay_type": "functional, organism-based"}, "[5]": {"tested_on": "HepG2", "experiment": "Cytotoxicity against human HepG2 cells assessed as reduction in cell viability at 100 uM relative to control", "assay_type": "toxicity, cell-based", "details": "hepg2, 100 µM"}, "[6]": {"experiment": "Inhibition of Escherichia coli IMP-7 using fluorocillin as substrate incubated for 30 mins by fluorescence based assay"}, "[7]": {"experiment": "Toxicity in zebrafish embryo assessed as maximum tolerated concentration measured up to 120 hrs", "set-up": "species or system Danio rerio", "details": "in vivo, read-out: MTC"}, "[8]": {"biological_target": "T1, Matrix metalloproteinase-14", "experiment": "Inhibition of human MMP-14 at 100 uM relative to control"}, "[9]": {"tested_on": "A549", "experiment": "Cytotoxicity against human A549 cells assessed as reduction in cell viability at 100 uM relative to control", "assay_type": "toxicity, cell-based", "details": "a549, 100 µM"}, "[10]": {"experiment": "Inhibition of Escherichia coli NDM-1 using fluorocillin as substrate incubated for 30 mins by fluorescence based assay"}, "[11]": {"tested_on": "Pseudomonas aeruginosa", "experiment": "Inhibition of Pseudomonas aeruginosa quorum sensing system LasB at 100 uM"}, "[12]": {"experiment": "Lipophilicity, log D of the compound at pH 7.4 by HPLC-MS analysis", "assay_type": "physicochemical", "details": "buffer"}, "[13]": {"biological_target": "T2, Interstitial collagenase (Homo sapiens) (UniProt P03956)", "T2 sequence (whole entry)": "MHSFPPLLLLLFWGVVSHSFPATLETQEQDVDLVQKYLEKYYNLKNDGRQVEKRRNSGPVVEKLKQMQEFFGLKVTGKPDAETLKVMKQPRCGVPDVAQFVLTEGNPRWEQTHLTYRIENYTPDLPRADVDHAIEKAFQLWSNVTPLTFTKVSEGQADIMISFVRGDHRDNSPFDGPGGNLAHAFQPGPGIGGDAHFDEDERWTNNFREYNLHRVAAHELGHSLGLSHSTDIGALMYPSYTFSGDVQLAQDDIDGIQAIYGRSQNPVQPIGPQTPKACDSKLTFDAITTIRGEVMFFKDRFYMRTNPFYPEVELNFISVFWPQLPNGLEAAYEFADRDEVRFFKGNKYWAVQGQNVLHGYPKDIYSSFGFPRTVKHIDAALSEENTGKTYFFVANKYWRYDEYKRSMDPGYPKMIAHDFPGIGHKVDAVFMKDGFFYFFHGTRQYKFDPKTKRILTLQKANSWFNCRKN", "experiment": "Inhibition of human MMP-1 at 100 uM relative to control"}, "[14]": {"biological_target": "T3, 72 kDa type IV collagenase (Homo sapiens, UniProt P08253)", "experiment": "Inhibition of human MMP-2 at 100 uM relative to control"}, "[15]": {"biological_target": "Stromelysin-1 (Homo sapiens) (UniProt P08254)", "sequence (P08254 100-477 limits assumed)": "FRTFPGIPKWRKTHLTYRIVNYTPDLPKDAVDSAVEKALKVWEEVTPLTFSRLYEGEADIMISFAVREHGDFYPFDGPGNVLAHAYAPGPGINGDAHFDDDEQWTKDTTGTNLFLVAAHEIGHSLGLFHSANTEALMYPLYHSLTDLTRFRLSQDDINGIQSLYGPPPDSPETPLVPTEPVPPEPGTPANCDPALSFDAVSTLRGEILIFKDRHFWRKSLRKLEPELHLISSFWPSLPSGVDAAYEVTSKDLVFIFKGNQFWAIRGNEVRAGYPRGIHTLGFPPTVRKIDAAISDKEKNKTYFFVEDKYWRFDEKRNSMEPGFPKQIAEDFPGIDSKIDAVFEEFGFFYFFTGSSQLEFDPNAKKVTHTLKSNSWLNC", "experiment": "Inhibition of human MMP-3 at 100 uM relative to control"}, "[16]": {"tested_on": "Escherichia coli", "experiment": "Antibacterial activity against VIM-1 expressing Escherichia coli isolates assessed as inhibition of bacterial growth by microdilution method", "assay_type": "functional, organism-based"}, "[17]": {"tested_on": "Escherichia coli", "experiment": "Antibacterial activity against NDM-1 expressing Escherichia coli isolates assessed as inhibition of bacterial growth by microdilution method", "assay_type": "functional, organism-based"}, "[18]": {"tested_on": "Escherichia coli", "experiment": "Antibacterial activity against IMP-1 expressing Escherichia coli isolates assessed as inhibition of bacterial growth by microdilution method", "assay_type": "functional, organism-based"}, "[19]": {"biological_target": "Disintegrin and metalloproteinase domain-containing protein 17 (Homo sapiens) (UniProt P78536)", "sequence (P78536 whole entry, the tested form may be a part)": "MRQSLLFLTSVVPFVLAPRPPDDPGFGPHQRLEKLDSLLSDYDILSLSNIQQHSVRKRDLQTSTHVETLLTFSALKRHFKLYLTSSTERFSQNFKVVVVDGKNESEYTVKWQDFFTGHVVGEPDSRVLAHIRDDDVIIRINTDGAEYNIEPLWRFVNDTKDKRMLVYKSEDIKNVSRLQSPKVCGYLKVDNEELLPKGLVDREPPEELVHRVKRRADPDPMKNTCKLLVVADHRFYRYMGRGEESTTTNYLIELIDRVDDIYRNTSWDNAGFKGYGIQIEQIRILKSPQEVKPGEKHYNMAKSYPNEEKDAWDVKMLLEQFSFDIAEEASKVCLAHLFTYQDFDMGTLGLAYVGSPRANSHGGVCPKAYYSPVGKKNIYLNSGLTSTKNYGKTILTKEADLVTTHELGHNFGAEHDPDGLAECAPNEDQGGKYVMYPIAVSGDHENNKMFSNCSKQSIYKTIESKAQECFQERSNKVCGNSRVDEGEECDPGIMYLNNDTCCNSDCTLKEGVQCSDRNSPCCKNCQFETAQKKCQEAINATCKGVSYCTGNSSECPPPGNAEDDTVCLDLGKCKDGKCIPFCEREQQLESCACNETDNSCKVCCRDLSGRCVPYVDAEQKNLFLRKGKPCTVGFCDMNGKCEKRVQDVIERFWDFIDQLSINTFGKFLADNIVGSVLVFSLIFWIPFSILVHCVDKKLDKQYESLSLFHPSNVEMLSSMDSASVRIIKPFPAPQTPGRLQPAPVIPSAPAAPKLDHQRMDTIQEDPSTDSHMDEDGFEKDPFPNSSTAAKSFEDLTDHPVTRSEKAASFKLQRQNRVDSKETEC", "experiment": "Inhibition of human TACE at 100 uM relative to control"}, "[20]": {"biological_target": "BlaVIM-1 (Escherichia coli, UniProt Q8GDC1)", "experiment": "Inhibition of Escherichia coli VIM-1 using fluorocillin as substrate incubated for 30 mins by fluorescence based assay"}, "[21]": {"biological_target": "T3, 72 kDa type IV collagenase", "experiment": "Inhibition of human MMP-2"}, "[22]": {"biological_target": "T4, Matrilysin (Homo sapiens) (UniProt P09237)", "T4 sequence (whole entry)": "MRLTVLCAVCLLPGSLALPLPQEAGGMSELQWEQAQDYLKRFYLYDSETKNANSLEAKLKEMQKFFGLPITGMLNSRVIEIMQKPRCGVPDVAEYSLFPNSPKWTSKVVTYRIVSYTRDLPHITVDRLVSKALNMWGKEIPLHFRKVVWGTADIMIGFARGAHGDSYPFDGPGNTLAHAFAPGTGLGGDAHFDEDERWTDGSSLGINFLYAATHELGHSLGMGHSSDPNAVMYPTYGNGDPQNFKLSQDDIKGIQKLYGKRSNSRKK", "experiment": "Inhibition of human MMP-7 at 100 uM relative to control"}}, "note": "Activity calls are given as the source filed them. The rule behind the calls is not given here.", "data": [{"molecule": "NC(=O)NS(=O)(=O)c1ccc(NC(=O)CCS)cc1", "values": [{"measurement": "IC50", "setting": "[1]", "value": 31000, "unit": "nM"}, {"measurement": "inhibition", "setting": "[2]", "value": "< 10", "unit": "%"}, {"measurement": "Activity", "setting": "[3]", "value": "< 10", "unit": "%"}, {"measurement": "Activity", "setting": "[4]", "value": "inactive"}, {"measurement": "Activity", "setting": "[5]", "value": "< 10", "unit": "%"}, {"measurement": "IC50", "setting": "[6]", "value": 12600, "unit": "nM"}, {"measurement": "MNTC at 120 h", "setting": "[7]", "value": "≥ 150", "unit": "µM"}, {"measurement": "inhibition", "setting": "[8]", "value": 73, "unit": "%"}, {"measurement": "Activity", "setting": "[9]", "value": "< 10", "unit": "%"}, {"measurement": "IC50", "setting": "[10]", "value": 8600, "unit": "nM"}, {"measurement": "inhibition", "setting": "[11]", "value": "Active"}, {"measurement": "logD", "setting": "[12]", "value": -1.69}, {"measurement": "inhibition", "setting": "[13]", "value": "< 10", "unit": "%"}, {"measurement": "inhibition", "setting": "[14]", "value": 88, "unit": "%"}, {"measurement": "inhibition", "setting": "[15]", "value": "< 10", "unit": "%"}, {"measurement": "Activity", "setting": "[16]", "value": "inactive"}, {"measurement": "Activity", "setting": "[17]", "value": "inactive"}, {"measurement": "Activity", "setting": "[18]", "value": "inactive"}, {"measurement": "inhibition", "setting": "[19]", "value": "< 10", "unit": "%"}, {"measurement": "IC50", "setting": "[20]", "value": 2000, "unit": "nM"}, {"measurement": "IC50", "setting": "[21]", "value": 64000, "unit": "nM"}, {"measurement": "inhibition", "setting": "[22]", "value": 32, "unit": "%"}]}, {"molecule": "COC(=O)c1ccc(NC(=O)CCS)cc1", "values": [{"measurement": "IC50", "setting": "[6]", "value": 1100, "unit": "nM"}, {"measurement": "IC50", "setting": "[10]", "value": 2800, "unit": "nM"}, {"measurement": "inhibition", "setting": "[11]", "value": "Active"}, {"measurement": "logD", "setting": "[12]", "value": 1.95}, {"measurement": "IC50", "setting": "[20]", "value": 100, "unit": "nM"}]}, {"molecule": "O=C(CCS)Nc1cccc(O)c1", "values": [{"measurement": "IC50", "setting": "[6]", "value": 1400, "unit": "nM"}, {"measurement": "IC50", "setting": "[10]", "value": 2700, "unit": "nM"}, {"measurement": "logD", "setting": "[12]", "value": 0.41}, {"measurement": "IC50", "setting": "[20]", "value": 100, "unit": "nM"}]}, {"molecule": "O=C(CCS)Nc1cccc(S(=O)(=O)O)c1", "values": [{"measurement": "Activity", "setting": "[4]", "value": "inactive"}, {"measurement": "IC50", "setting": "[6]", "value": 3600, "unit": "nM"}, {"measurement": "IC50", "setting": "[10]", "value": 1300, "unit": "nM"}, {"measurement": "logD", "setting": "[12]", "value": -1.35}, {"measurement": "Activity", "setting": "[16]", "value": "inactive"}, {"measurement": "Activity", "setting": "[17]", "value": "inactive"}, {"measurement": "Activity", "setting": "[18]", "value": "inactive"}, {"measurement": "IC50", "setting": "[20]", "value": 1600, "unit": "nM"}]}, {"molecule": "CCN(CC)Cc1cccc(NC(=O)CCS)c1", "values": [{"measurement": "IC50", "setting": "[6]", "value": 5500, "unit": "nM"}, {"measurement": "IC50", "setting": "[10]", "value": 6500, "unit": "nM"}, {"measurement": "logD", "setting": "[12]", "value": 0.24}, {"measurement": "IC50", "setting": "[20]", "value": 800, "unit": "nM"}]}, {"molecule": "CN(C)S(=O)(=O)c1ccc(NC(=O)CCS)cc1", "values": [{"measurement": "Activity", "setting": "[4]", "value": "inactive"}, {"measurement": "IC50", "setting": "[6]", "value": 2100, "unit": "nM"}, {"measurement": "IC50", "setting": "[10]", "value": 2800, "unit": "nM"}, {"measurement": "logD", "setting": "[12]", "value": 1.7}, {"measurement": "Activity", "setting": "[16]", "value": "inactive"}, {"measurement": "Activity", "setting": "[17]", "value": "inactive"}, {"measurement": "Activity", "setting": "[18]", "value": "inactive"}, {"measurement": "IC50", "setting": "[20]", "value": 800, "unit": "nM"}]}, {"molecule": "COC(=O)c1ccccc1NC(=O)CCS", "values": [{"measurement": "IC50", "setting": "[6]", "value": 1000, "unit": "nM"}, {"measurement": "IC50", "setting": "[10]", "value": 1300, "unit": "nM"}, {"measurement": "logD", "setting": "[12]", "value": 1.95}, {"measurement": "IC50", "setting": "[20]", "value": 10000, "unit": "nM"}]}, {"molecule": "NCc1cccc(NC(=O)CCS)c1", "values": [{"measurement": "Activity", "setting": "[4]", "value": "inactive"}, {"measurement": "IC50", "setting": "[6]", "value": 5100, "unit": "nM"}, {"measurement": "IC50", "setting": "[10]", "value": 5500, "unit": "nM"}, {"measurement": "logD", "setting": "[12]", "value": 0.28}, {"measurement": "Activity", "setting": "[16]", "value": "inactive"}, {"measurement": "Activity", "setting": "[17]", "value": "inactive"}, {"measurement": "Activity", "setting": "[18]", "value": "inactive"}, {"measurement": "IC50", "setting": "[20]", "value": 1000, "unit": "nM"}]}, {"molecule": "CS(=O)(=O)Nc1ccccc1NC(=O)CCS", "values": [{"measurement": "IC50", "setting": "[6]", "value": "> 10000", "unit": "nM"}, {"measurement": "IC50", "setting": "[10]", "value": 7000, "unit": "nM"}, {"measurement": "logD", "setting": "[12]", "value": 1.1}, {"measurement": "IC50", "setting": "[20]", "value": 1900, "unit": "nM"}]}, {"molecule": "O=C(CCS)Nc1ccc(S(=O)(=O)N2CCOCC2)cc1", "values": [{"measurement": "IC50", "setting": "[6]", "value": 7100, "unit": "nM"}, {"measurement": "IC50", "setting": "[10]", "value": 2500, "unit": "nM"}, {"measurement": "logD", "setting": "[12]", "value": 1.52}, {"measurement": "IC50", "setting": "[20]", "value": 1700, "unit": "nM"}]}, {"molecule": "O=C(CCS)Nc1ccc(C(=O)O)cc1", "values": [{"measurement": "IC50", "setting": "[6]", "value": "> 10000", "unit": "nM"}, {"measurement": "IC50", "setting": "[10]", "value": 1000, "unit": "nM"}, {"measurement": "logD", "setting": "[12]", "value": -1.65}, {"measurement": "IC50", "setting": "[20]", "value": 600, "unit": "nM"}]}, {"molecule": "O=C(CCS)Nc1cccc([N+](=O)[O-])c1", "values": [{"measurement": "IC50", "setting": "[6]", "value": 2600, "unit": "nM"}, {"measurement": "IC50", "setting": "[10]", "value": 2500, "unit": "nM"}, {"measurement": "logD", "setting": "[12]", "value": 2.21}, {"measurement": "IC50", "setting": "[20]", "value": 100, "unit": "nM"}]}]}
